Results on 7 compounds are retold here after patent US10611779B2, “Fused bicyclic heterocycle derivatives as pesticides” (Bayer CropScience Aktiengesellschaft, priority 2016, dated 2020).

In data set [1] the test system is Myzus persicae. The data set is described as follows: Myzus persicae - spray test. Particulars: application rate 100 g/ha; Chinese cabbage leaf discs, all stages; after 5 days. The format is in vivo. As for the experimental part:
Myzus persicae—Spray Test [table] To produce a suitable active ingredient formulation, 1 part by weight of active ingredient is dissolved with the specified parts by weight of solvent and made up to the desired concentration with water containing an emulsifier concentration of 1000 ppm. To produce further test concentrations, the formulation is diluted with emulsifier-containing water. Discs of Chinese cabbage leaves (Brassica pekinensis) infested by all stages of the green peach aphid (Myzus persicae) are sprayed with an active ingredient formulation of the desired concentration. After 5 days, the efficacy in % is determined. 100% means that all the aphids have been killed; 0% means that no aphids have been killed.

Data set [2] deals with Myzus persicae. The data set is described as follows: Myzus persicae - oral test. It counts as in vivo. Particulars: microtitre plate, after 5 days. As for the experimental part:
Myzus persicae—Oral Test [table] To produce a suitable active ingredient formulation, 1 part by weight of active ingredient is dissolved with the stated parts by weight of solvent and made up to the desired concentration with water. 50 μl of the active ingredient preparation are transferred into microtitre plates and made up to a final volume of 200 μl with 150 μl of IPL41 insect medium (33%+15% sugar). Subsequently, the plates are sealed with parafilm, which a mixed population of green peach aphids (Myzus persicae) within a second microtitre plate is able to puncture and imbibe the solution. After 5 days, the efficacy in % is determined. 100% means that all the aphids have been killed; 0% means that no aphids have been killed.

A further data set has as its system Tetranychus urticae. The data set is described as follows: Tetranychus urticae - spray test, OP-resistant. It counts as in vivo. Particulars: application rate 20 g/ha; bean leaf discs, all stages; after 6 days. The method, then:
Tetranychus urticae—Spray Test, OP-Resistant
(§1) To produce a suitable active ingredient formulation, 1 part by weight of active ingredient is dissolved with the specified parts by weight of solvent and made up to the desired concentration with water containing an emulsifier concentration of 1000 ppm. To produce further test concentrations, the formulation is diluted with emulsifier-containing water.
Discs of bean leaves (Phaseolus vulgaris) infested with all stages of the greenhouse red spider mite (Tetranychus urticae) are sprayed with an active ingredient formulation of the desired concentration.
After 6 days, the efficacy in % is determined. 100% means that all the spider mites have been killed; 0% means that no spider mites have been killed.

A short description of data set [3]: log P (neutral) by HPLC on reversed-phase column (EEC Directive 79/831 Annex V.A8). Particulars: reversed-phase C18 HPLC column, reversed-phase C 18, 55° C., neutral range pH 7.8. The format is physicochemical. The method, then: The log P values are measured according to EEC Directive 79/831 Annex V.A8 by HPLC (high-performance liquid chromatography) on a reversed-phase column (C 18). Temperature: 55° C. The LC-MS determination in the neutral range is effected at pH 7.8 with 0.001 molar aqueous ammonium hydrogencarbonate solution and acetonitrile as eluents; linear gradient from 10% acetonitrile to 95% acetonitrile. Called log P (neutral) in the table. Calibration is effected using unbranched alkan-2-ones (having 3 to 16 carbon atoms) with known log P values (log P values determined on the basis of the retention times by linear interpolation between two successive alkanones).

Data set [4] deals with Ctenocephalides felis. The data set is described as follows: Ctenocephalides felis - oral test. The format is in vivo. Particulars: application rate 100 ppm; in citrated cattle blood; after 2 days. The method, then: Ctenocephalides felis—Oral Test Solvent: dimethyl sulfoxide To produce a suitable active ingredient formulation, 10 mg of active ingredient are mixed with 0.5 ml of dimethyl sulfoxide. Dilution with citrated cattle blood gives the desired concentration. About 20 unfed adult cat fleas (Ctenocephalides felis) are placed into a chamber which is closed at the top and bottom with gauze. A metal cylinder whose bottom end is closed with parafilm is placed onto the chamber. The cylinder contains the blood/active ingredient formulation, which can be imbibed by the fleas through the parafilm membrane. After 2 days, the kill in % is determined. 100% means that all of the fleas have been killed; 0% means that none of the fleas have been killed.

Data set [5] has as its system Ctenocephalides felis. The data set is described as follows: Ctenocephalides felis - in vitro contact tests with adult cat fleas. The format is in vivo. Particulars: application rate 5 μg/cm^2 (=500 g/ha), coated glass tube, after 48 h. The method, then: Ctenocephalides felis—In Vitro Contact Tests with Adult Cat Fleas For the coating of the test tubes, 9 mg of active ingredient are first dissolved in 1 ml of acetone p.a. and then diluted to the desired concentration with acetone p.a. 250 μl of the solution are distributed homogeneously on the inner walls and the base of a 25 ml glass tube by turning and rocking on an orbital shaker (rocking rotation at 30 rpm for 2 h). With 900 ppm of active ingredient solution and internal surface area 44.7 cm^2, given homogeneous distribution, an area-based dose of 5 μg/cm^2 is achieved. After the solvent has evaporated off, the tubes are populated with 5-10 adult cat fleas (Ctenocephalides felis), sealed with a perforated plastic lid and incubated in a horizontal position at room temperature and ambient humidity. After 48 h, efficacy is determined. To this end, the tubes are stood upright and the fleas are knocked to the base of the tube. Fleas which remain motionless at the base or move in an uncoordinated manner are considered to be dead or moribund. […] 100% efficacy means that all the fleas were dead or moribund. 0% efficacy means that no fleas were harmed.

A further data set concerns Lucilia cuprina. As to the kind of experiment: Lucilia cuprina test. It counts as in vivo. Particulars: application rate 100 ppm; minced horsemeat; after 2 days. The method, then: Lucilia cuprina Test Solvent: dimethyl sulfoxide To produce a suitable active ingredient formulation, 10 mg of active ingredient are mixed with 0.5 ml of dimethyl sulfoxide, and the concentrate is diluted with water to the desired concentration. About 20 L1 larvae of the Australian sheep blowfly (Lucilia cuprina) are transferred into a test vessel containing minced horsemeat and the active ingredient formulation of the desired concentration. After 2 days, the kill in % is determined. 100% means that all the larvae have been killed; 0% means that no larvae have been killed.

The next data set deals with Spodoptera frugiperda. As to the kind of experiment: Spodoptera frugiperda - spray test. The format is in vivo. Particulars: application rate 100 g/ha; maize leaf discs; after 7 days. The method, then: Spodoptera frugiperda—Spray Test [table] To produce a suitable active ingredient formulation, 1 part by weight of active ingredient is dissolved with the specified parts by weight of solvent and made up to the desired concentration with water containing an emulsifier concentration of 1000 ppm. To produce further test concentrations, the formulation is diluted with emulsifier-containing water. Leaf discs of maize (Zea mays) are sprayed with an active ingredient formulation of the desired concentration and, after drying, populated with caterpillars of the armyworm (Spodoptera frugiperda). After 7 days, the efficacy in % is determined. 100% means that all the caterpillars have been killed; 0% means that no caterpillar has been killed.

In a further data set the test system is Musca domestica. As to the kind of experiment: Musca domestica test. The format is in vivo. Particulars: application rate 100 ppm; sponge with sugar solution; after 2 days. The method, then: Musca domestica Test Solvent: dimethyl sulfoxide To produce a suitable active ingredient formulation, 10 mg of active ingredient are mixed with 0.5 ml of dimethyl sulfoxide, and the concentrate is diluted with water to the desired concentration. Vessels containing a sponge treated with sugar solution and the active ingredient formulation of the desired concentration are populated with 10 adult houseflies (Musca domestica). After 2 days, the kill in % is determined. 100% means that all of the flies have been killed; 0% means that none of the flies have been killed.

Another data set has as its system Phaedon cochleariae. The data set is described as follows: Phaedon cochleariae - spray test. The format is in vivo. Particulars: application rate 100 g/ha; Chinese cabbage leaf discs; after 7 days. The method, then:
Phaedon cochleariae—Spray Test
as §1
Discs of Chinese cabbage leaves (Brassica pekinensis) are sprayed with an active ingredient formulation of the desired concentration and, after drying, populated with larvae of the mustard beetle (Phaedon cochleariae).
After 7 days, the efficacy in % is determined. 100% means that all the beetle larvae have been killed; 0% means that no beetle larvae have been killed.

A further data set has as its system Boophilus microplus. As to the kind of experiment: Boophilus microplus - injection test. It counts as in vivo. Particulars: application rate 20 μg/animal; injection into engorged adult female ticks; after 7 days. As for the experimental part:
Boophilus microplus—Injection Test Solvent: dimethyl sulfoxide To produce a suitable active ingredient formulation, 10 mg of active ingredient are mixed with 0.5 ml of solvent and the concentrate is diluted to the desired concentration with solvent. 1 μl of the active ingredient solution is injected into the abdomen of 5 engorged adult female cattle ticks (Boophilus microplus). The animals are transferred into dishes and kept in a climate-controlled room. Efficacy is assessed after 7 days by laying of fertile eggs. Eggs which are not visibly fertile are stored in a climate-controlled cabinet until the larvae hatch after about 42 days. An efficacy of 100% means that none of the ticks has laid any fertile eggs; 0% means that all the eggs are fertile.

The structures appear in SMILES notation.

A word on the chromatographic logP: it is a lipophilicity value derived from retention on a column. The low end stands for a more hydrophilic compound, the high end for a more lipophilic compound.

Take `CCS(=O)(=O)c1c(-c2nc3cc(C(F)(F)F)ncc3n2C)nn2cccnc12` [Example I-2, 2-(3-Ethylsulfonylpyrazolo[1,5-a]pyrimidin-2-yl)-3-methyl-6-(trifluoromethyl)imidazo[4,5-c]-pyridine]: the entries for the “efficacy (aphids killed)” value with Myzus persicae [1], in the data set with Myzus persicae [2] (application rate 4 ppm) and in the data set with Myzus persicae [2] (application rate 20 ppm) were 90%, 100% and 100%, respectively. For the same compound, the “efficacy (spider mites killed)” value with Tetranychus urticae is listed as 90%. For the same compound, the chromatographic logP in data set [3] was 1.58.

With `CCS(=O)(=O)c1c(-c2nc3cc(C(F)(F)F)ncc3n2C)nn2ccccc12` [Example I-1, 2-(3-Ethylsulfonylpyrazolo[1,5-a]pyridin-2-yl)-3-methyl-6-(trifluoromethyl)imidazo[4,5-c]pyridine], the “efficacy (kill of fleas)” value in the data set with Ctenocephalides felis [4] is 100%. Also, the “efficacy (aphids killed)” value with Myzus persicae [1], in the data set on Myzus persicae [2] (application rate 4 ppm) and with Myzus persicae [2] (application rate 20 ppm) was 100% in each case. Also, the “efficacy (fleas dead or moribund)” value in the data set with Ctenocephalides felis [5] is 100%. Also, the “efficacy (kill of L1 larvae)” value with Lucilia cuprina was determined as 100%. In data set [3], the chromatographic logP was 2.26.

`Cn1c(-c2nn3ccccc3c2Br)nc2cc(C(F)(F)F)ncc21` [2-(3-Bromopyrazolo[1,5-a]pyridin-2-yl)-3-methyl-6-(trifluoromethyl)imidazo[4,5-c]pyridine]: the chromatographic logP in data set [3] came to 2.86.

With `CCS(=O)(=O)c1c(-c2nc3cc(C(F)(F)F)cnc3n2C)nn2ccccc12` [Example I-4], the “efficacy (aphids killed)” value in the data set with Myzus persicae [1] worked out at 90%; with Myzus persicae [2] (application rate 4 ppm), 100%. Further, the “efficacy (fleas dead or moribund)” value in the data set on Ctenocephalides felis [5] is recorded as 100%. Moreover, in the data set on Spodoptera frugiperda, the “efficacy (caterpillars killed)” value is recorded as 100%. Further, the “efficacy (kill of L1 larvae)” value in the data set on Lucilia cuprina is given as 100%. The “efficacy (kill of adult houseflies)” value with Musca domestica is recorded as 90%. For the same compound, in the data set with Phaedon cochleariae, the “efficacy (beetle larvae killed)” value is on record as 100%.

On to `CCS(=O)(=O)c1c(-c2nc3cc(C(F)(F)F)ncc3n2C)nn2cc(Cl)ccc12` [Example I-5], for which the “efficacy (aphids killed)” value in the data set on Myzus persicae [2] (application rate 4 ppm) is given as 100%. In the data set with Spodoptera frugiperda, the “efficacy (caterpillars killed)” value worked out at 100%. The “efficacy (beetle larvae killed)” value with Phaedon cochleariae worked out at 100%.

Turning to `CCS(=O)(=O)c1c(-c2nc3cc(C(F)(F)F)cnc3n2C)nn2cc(Cl)ccc12` [Example I-6], the “efficacy (aphids killed)” value amounted to 90% with Myzus persicae [1] and 100% with Myzus persicae [2] (application rate 4 ppm). The “efficacy (caterpillars killed)” value in the data set with Spodoptera frugiperda turned out to be 100%. Besides, the “efficacy (beetle larvae killed)” value with Phaedon cochleariae amounted to 100%.

In the case of `CCS(=O)(=O)c1c(-c2nc3cc(C(F)(F)F)ncc3n2C)nn2c(C)cc(C)nc12` [Example I-3, 3-Ethylsulfonyl-5,7-dimethyl-2-[3-methyl-6-(trifluoromethyl)imidazo[4,5-c]pyridin-2-yl]-pyrazolo[1,5-a]pyrimidine], the “efficacy (kill of fleas)” value with Ctenocephalides felis [4] was found to be 100%. Besides, the “efficacy (no laying of fertile eggs)” value in the data set with Boophilus microplus came to 100%. Moreover, the “efficacy (aphids killed)” value in the data set with Myzus persicae [1], with Myzus persicae [2] (application rate 4 ppm) and with Myzus persicae [2] (application rate 20 ppm) was 100% each time. In addition, the “efficacy (kill of L1 larvae)” value in the data set with Lucilia cuprina came to 97%. In [3], this compound returned a chromatographic logP of 2.
